Test results taken from PubChem BioAssay (NCI).
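Values below derive from 48-hour exposures of cells grown in 96-well plates, with endpoints linearly interpolated between the two concentrations bracketing the appropriate inhibition level. Here, GI50 denotes the concentration required for 50% inhibition of growth. TGI: concentration producing complete growth inhibition.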

Columns and labels:
Assay in all cases: growth of human tumour cells (NCI), 48 h
A549 NSCLC = tested on: A549 NSCLC
HCT-15 colon = tested on: HCT-15 colon
HOP-92 NSCLC = tested on: HOP-92 NSCLC
HT29 colon = tested on: HT29 colon
MCF7 breast = tested on: MCF7 breast
NCI-H522 lung = tested on: NCI-H522 lung
RXF 393 renal = tested on: RXF 393 renal
SF-268 CNS = tested on: SF-268 CNS
SF-539 CNS = tested on: SF-539 CNS
NCI/ADR-RES ovarian = tested on: NCI/ADR-RES ovarian

Row | Compound | TGI (A549 NSCLC) | TGI (HCT-15 colon) | TGI (HOP-92 NSCLC) | TGI (HT29 colon) | TGI (MCF7 breast) | TGI (NCI-H522 lung) | TGI (RXF 393 renal) | TGI (SF-268 CNS) | TGI (SF-539 CNS) | TGI (NCI/ADR-RES ovarian) | GI50 (SF-539 CNS) | GI50 (HCT-15 colon) | GI50 (HT29 colon) | GI50 (MCF7 breast) | GI50 (NCI/ADR-RES ovarian) | GI50 (RXF 393 renal) | GI50 (SF-268 CNS)
1 | COc1ccc2cc(CNCCCCCCNC(=O)Nc3cccc4ccccc34)ccc2c1 | > 100 µM | > 100 µM | > 100 µM | > 100 µM | > 100 µM | > 100 µM | > 100 µM | > 100 µM | > 100 µM | – | – | – | – | – | – | – | –
2 | CCOC(=O)/C(C(=O)c1ccc[nH]1)=C1/CCCN1C | > 100 µM | > 100 µM | – | > 100 µM | > 100 µM | – | > 100 µM | > 100 µM | > 100 µM | > 100 µM | – | – | – | – | – | – | –
3 | Cc1cc2nc3c(N)nn(CCCN(C)C)c3nc2cc1C | > 100 µM | > 100 µM | – | > 100 µM | > 100 µM | – | > 100 µM | > 100 µM | > 100 µM | > 100 µM | – | – | – | – | – | – | –
4 | COC1=CC(=O)C2(C=C1OC)OC[C@H]1Oc3c(ccc4c3C=CC(C)(C)O4)C(=O)[C@H]12 (stereo partly specified) | > 100 µM | – | 44.3 µM | > 100 µM | – | 51.5 µM | > 100 µM | – | > 100 µM | – | – | – | – | – | – | – | –
5 | C#C[C@]1(O)CC[C@H]2[C@@H]3CCC4=C/C(=N/OC(=O)c5cccc6cc7ccccc7nc56)CC[C@@H]4[C@H]3CC[C@@]21CC | > 100 µM | > 100 µM | > 100 µM | > 100 µM | > 100 µM | – | > 100 µM | > 100 µM | > 100 µM | > 100 µM | – | – | – | – | – | – | –
6 | CCCOC(=O)CCC(NC(=O)c1ccc(Nc2nc3ccccc3nc2-c2cccs2)cc1)C(=O)OCCC (stereo unspecified) | > 100 µM | > 100 µM | > 100 µM | – | – | > 100 µM | > 100 µM | > 100 µM | > 100 µM | – | – | – | – | – | – | – | –
7 | O=S(c1ccc(O)cc1)c1ccc(O)cc1 | > 100 µM | > 100 µM | > 100 µM | > 100 µM | – | > 100 µM | > 100 µM | > 100 µM | > 100 µM | – | – | – | – | – | – | – | –
8 | O=C(OC[C@H]1C[C@H]2C(=O)OCCC[C@H]2O1)c1ccccc1 | > 100 µM | > 100 µM | > 100 µM | > 100 µM | > 100 µM | > 100 µM | – | > 100 µM | – | > 100 µM | – | – | – | – | – | – | –
9 | O=C(Cn1c(=O)oc2ccccc21)N(c1ccccc1)c1ccccc1 | – | > 100 µM | – | > 100 µM | > 100 µM | – | > 100 µM | > 100 µM | > 100 µM | > 100 µM | – | – | – | – | – | – | –
10 | CNC(=O)OC1/C(C)=C\C(C)C(O)C(OC)CC(C)CC2=C(OC)C(=O)C=C(C2=O)N(C)C(=O)/C(C)=C/C=C\C1OC (stereo unspecified) | 43.7 µM | 17.5 µM | 16 µM | 17 µM | – | 6.09 µM | 17.9 µM | 26.1 µM | 23.3 µM | 62 µM | < 0.1 µM | – | – | – | – | – | –
11 | CCN(CC)C(=O)N[C@@H](CC(C)C)C(=O)NC | > 100 µM | > 100 µM | – | > 100 µM | > 100 µM | > 100 µM | > 100 µM | > 100 µM | – | > 100 µM | – | – | – | – | – | – | –
12 | O=c1[nH]nc(-c2cccc([N+](=O)[O-])c2)[nH]1 | > 100 µM | > 100 µM | – | > 100 µM | > 100 µM | > 100 µM | > 100 µM | > 100 µM | > 100 µM | > 100 µM | – | – | – | – | – | – | –
13 | Cc1[nH]c2c(C)c3c([nH]c4ccc(Cl)cc43)c(C)c2c(=O)c1C | 10 µM | 5.72 µM | > 100 µM | 12.8 µM | 6.9 µM | 12.9 µM | – | > 100 µM | 36 µM | 60.5 µM | – | – | – | – | – | – | –
14 | COC(OC)c1cccc2c1C(=O)CCC1(CC2)OCCCCO1 | > 100 µM | > 100 µM | – | > 100 µM | – | > 100 µM | > 100 µM | > 100 µM | > 100 µM | – | – | – | – | – | – | – | –
15 | CCCCCCCC(=O)NC(C)(C)C(=O)NCC(=O)NC(CC(C)C)C(=O)NC(C)(C)C(=O)NCC(=O)NCC(=O)NC(CC(C)C)C(=O)NC(C)(C)C(=O)NCC(=O)NC(C(=O)NC(CO)CC(C)C)C(C)CC (stereo unspecified) | 8.01 µM | 10.3 µM | 6.36 µM | 7.42 µM | – | 7.26 µM | 7.97 µM | 7.5 µM | – | 9.12 µM | – | – | – | – | – | – | –
16 | CN1C/C(=C\c2ccccc2)C2=NN(C(N)=S)[C@H](c3ccccc3)[C@@H]2C1 | > 100 µM | > 100 µM | > 100 µM | > 100 µM | – | > 100 µM | > 100 µM | > 100 µM | > 100 µM | – | – | – | – | – | – | – | –
17 | O=C1OCOC2(CCCC2)C1c1ccccc1 (stereo unspecified) | > 100 µM | > 100 µM | > 100 µM | > 100 µM | – | > 100 µM | > 100 µM | > 100 µM | > 100 µM | > 100 µM | – | – | – | – | – | – | –
18 | CC1(C)OCC(/C=C\C(O)CC2(C)OCCO2)CO1 (stereo unspecified) | > 100 µM | > 100 µM | > 100 µM | > 100 µM | > 100 µM | > 100 µM | – | > 100 µM | > 100 µM | > 100 µM | – | – | – | – | – | – | –
19 | N#CCCN(C(=O)Nc1ccc(NC(=O)N(CCC#N)c2ccccc2)cc1)c1ccccc1 | > 100 µM | > 100 µM | – | > 100 µM | > 100 µM | > 100 µM | > 100 µM | > 100 µM | – | > 100 µM | – | – | – | – | – | – | –
20 | C=CC[PH+](c1ccccc1)c1ccccc1.C=CC[PH+](c1ccccc1)c1ccccc1.[Pt+2].[S-]c1nc2ccccc2[nH]1.[S-]c1nc2ccccc2[nH]1 | – | > 100 µM | – | > 100 µM | 9.91 µM | – | 7.06 µM | > 100 µM | – | > 100 µM | – | 6.34 µM | 2.62 µM | 2.57 µM | 47.1 µM | 2.61 µM | 2.77 µM
21 | NC1=Nc2ncccc2C(=O)NN1 | > 10 µM | > 10 µM | > 10 µM | > 10 µM | > 10 µM | – | > 10 µM | > 10 µM | > 10 µM | – | – | – | – | – | – | – | –
22 | C(/C=C(\Nc1ccccc1)c1ccc2ccccc2c1)=Nc1ccccc1 | 18.4 µM | 5.61 µM | 28.1 µM | – | 15.7 µM | 19 µM | 7.41 µM | 29.5 µM | 4.1 µM | 3.93 µM | – | – | – | – | – | – | –
23 | CC(NC(CC12CC3CC(CC(C3)C1)C2)C(N)=O)c1ccccc1 (stereo unspecified) | > 100 µM | > 100 µM | – | 48.1 µM | > 100 µM | 47.5 µM | – | 61.2 µM | – | 48 µM | – | – | – | – | – | – | –
